Measured values published in patent publication US5451599A, “Complex salts of hematoporphyrin and of its derivatives, their synthesis, and therapeutic agent” (Wojskowa Akademia Techniczna im. Jaroslawa Dabrowskiego, priority 1991, dated 1995).

Legend:
[1] = system: T-47D (breast cancer cells); test: 48 h incubation with the salts: cell fluorescence, living cells, multiplication coefficient (Table 3); type: cell-based, Human; details: 48 hs, 50 mcg/ml
Protocol: (§1) New compounds of formula 1 were tested on cell lines. Use was made of 9 different neoplastic cell lines which were incubated for 48 hs with various new salts of protoporphyrin and with a new salt of the conventionally applied HpD preparation/hematoporphyrin derivatives/obtained according to Lipson et al. All compounds were used in the form of aqueous solutions, at a concentration of 50 mcg/ml. Determination was made of:
(§2) 1/ Cell fluorescence /F/: after 48 hs incubation, the cells were washed away, the intensity of fluorescence was measured in a fluorescence microscope and was expressed on an arbitrary scale of 0-4 scores;
(§3) 2/ Percentage of living cells /P %/ after 48 hs incubation;
(§4) 3/ Cell multiplication coefficient /M/ in the presence of different preparations, expressed as: [formula]
T-47D breast cancer cells

CL = test: 48 h incubation with the salts: cell fluorescence, living cells, multiplication coefficient (Table 1); type: cell-based; details: 48 hs, 50 mcg/ml
Protocol: as §1, §2, §3, §4

[2] = system: MA-104 (Rhesus monkey embryo kidney cancer cells); test: as above; type: cell-based; details: 48 hs, 50 mcg/ml
Protocol: as §1, §2, §3, §4

PZ = test: as above; type: cell-based; details: 48 hs, 50 mcg/ml
Protocol: as §1, §2, §3, §4

[3] = system: HBT-39/w (breast cancer cells); test: 48 h incubation with the salts: cell fluorescence, living cells, multiplication coefficient (Table 2); type: cell-based, Human; details: 48 hs, 50 mcg/ml
Protocol: as §1, §2, §3, §4

[4] = system: Hela (cervix uteri cancer cells); test: 48 h incubation with the salts: cell fluorescence, living cells, multiplication coefficient (Table 1); type: cell-based, Human; details: 48 hs, 50 mcg/ml
Protocol: as §1, §2, §3, §4

[5] = system: transplanted mammary gland cancer; test: survival of C3H mice with transplanted mammary gland cancer, with and without He-Ne laser irradiation (FIG. 6); type: in vivo; details: 10 mg/kg body weight; with or without He-Ne laser 150 J/cm^2
Protocol: FIG. 6 is a graph showing the survival rate of C3H mice with transplanted mammary gland cancer after administration of compounds of the invention (with and without irradiation) and a control.
The new compounds were also studied in animals.
In animal studies, C3H mice with transplanted mammary gland cancer were administered both above-mentioned compounds in a dose of 10 mg/kg body weight, in two variants: mice irradiated with He-Ne laser in a dose of 150 J/cm^2 /in FIG. 6, marked by the letter L next to the symbol of the compound/and not irradiated ones. The results are recorded in the Figure.

[6] = system: KB (oral cavity cancer cells); test: 48 h incubation with the salts: cell fluorescence, living cells, multiplication coefficient (Table 2); type: cell-based, Human; details: 48 hs, 50 mcg/ml
Protocol: as §1, §2, §3, §4
KB oral cavity cancer cells

[7] = system: HEp-2 (larynx cancer cells); test: 48 h incubation with the salts: cell fluorescence, living cells, multiplication coefficient (Table 3); type: cell-based, Human; details: 48 hs, 50 mcg/ml
Protocol: as §1, §2, §3, §4
Hep-2 larynx cancer cells

[8] = system: Mm (Mm5MT/C1, mammary gland cancer cells of C3H-strain mice); test: as above; type: cell-based, Murine; details: for Cell fluorescence /F/ / Cell multiplication coefficient /M/ / Percentage of living cells /P %/: Mm, 48 hs, 50 mcg/ml
Protocol: as §1, §2, §3, §4
mammary gland cancer cells of C3H-strain mice

[9] = system: GR (GRMT/F6, mammary gland cancer cells of GR-strain mice); test: 48 h incubation with the salts: cell fluorescence, living cells, multiplication coefficient (Table 2); type: cell-based, Murine; details: 48 hs, 50 mcg/ml
Protocol: as §1, §2, §3, §4
GRMT/F6 mammary gland cancer cells of GR-strain mice

Compound	Cell fluorescence /F/ [1]	Cell multiplication coefficient /M/ [1]	Percentage of living cells /P %/ [1] [%]	Cell fluorescence /F/ (CL)	Cell multiplication coefficient /M/ (CL)	Percentage of living cells /P %/ (CL) [%]	Cell fluorescence /F/ [2]	Cell multiplication coefficient /M/ [2]	Percentage of living cells /P %/ [2] [%]	Cell fluorescence /F/ (PZ)	Cell multiplication coefficient /M/ (PZ)	Percentage of living cells /P %/ (PZ)	Cell fluorescence /F/ [3]	Cell multiplication coefficient /M/ [3]	Percentage of living cells /P %/ [3] [%]	Cell fluorescence /F/ [4]	Cell multiplication coefficient /M/ [4]	Percentage of living cells /P %/ [4] [%]	Cell fluorescence /F/ [6]	Cell multiplication coefficient /M/ [6]	also measured
CC1=C(CCC(=O)O)c2cc3[nH]c(cc4nc(cc5[nH]c(cc1n2)c(C(C)NC(CCCCN)C(=O)O)c5C)C(C(C)NC(CCCCN)C(=O)O)=C4C)c(C)c3CCC(=O)O.N=C(N)NCCC[C@H](N)C(=O)O.N=C(N)NCCC[C@H](N)C(=O)O (stereo not drawn) [PP/Lys/2 /Arg/2, l-arginine di/N-lysyl/-protoporphyrinate]	++	0,92	57	+	0,30	30	-	0,10	0	+	0,50	50%	++++	0,44	47	+++	0,16	16	-	0,12	mice survival [5]: most active, greatly prolonging mice survival; Percentage of living cells /P %/ [6]: 12%; Cell fluorescence /F/ [7]: ++; Cell multiplication coefficient /M/ [7]: 0,42; Percentage of living cells /P %/ [7]: 10%; Cell fluorescence /F/ [8]: ++; Cell multiplication coefficient /M/ [8]: 0,80; Percentage of living cells /P %/ [8]: 33%; activity in studies of the Mm5MT/C1 cell line (in words) ([8]; mammary gland cancer of C3H mice): one of the most active ones; Cell fluorescence /F/ [9]: +++; Cell multiplication coefficient /M/ [9]: 0,75; Percentage of living cells /P %/ [9]: 25%
CC1=C(CCC(=O)O)c2cc3[nH]c(cc4nc(cc5[nH]c(cc1n2)c(C(C)NC(CO)C(=O)O)c5C)C(C(C)NC(CO)C(=O)O)=C4C)c(C)c3CCC(=O)O.N=C(N)NCCC[C@H](N)C(=O)O.N=C(N)NCCC[C@H](N)C(=O)O (stereo not drawn) [PP/Ser/2 /Arg/2, l-arginine di/N-seryl/-protoporphyrinate]	+++	0,60	40	+	0	0	-	0,16	0	++	0,02	2,5%	++	0,50	33	++	0,50	55	++	0	Percentage of living cells /P %/ [6]: 0%; Cell fluorescence /F/ [7]: +; Cell multiplication coefficient /M/ [7]: 0,50; Percentage of living cells /P %/ [7]: 25%; Cell fluorescence /F/ [8]: +; Cell multiplication coefficient /M/ [8]: 0,37; Percentage of living cells /P %/ [8]: 37%; Cell fluorescence /F/ [9]: +; Cell multiplication coefficient /M/ [9]: 0,12; Percentage of living cells /P %/ [9]: 12%
l-arginine di/N-arginyl/-protoporphyrinate [PP/Arg/2 /Arg/2]	+++	0,40	40	++	0,03	4	++	0,42	31	+	0,10	10%	++++	0,28	28	++++	0,28	11	+	0,16	Percentage of living cells /P %/ [6]: 16%; Cell fluorescence /F/ [7]: +; Cell multiplication coefficient /M/ [7]: 0,14; Percentage of living cells /P %/ [7]: 5%; Cell fluorescence /F/ [8]: +++; Cell multiplication coefficient /M/ [8]: 0,38; Percentage of living cells /P %/ [8]: 12%; Cell fluorescence /F/ [9]: +++; Cell multiplication coefficient /M/ [9]: 0,12; Percentage of living cells /P %/ [9]: 12%
CC1=C(CCC(=O)O)c2cc3[nH]c(cc4nc(cc5[nH]c(cc1n2)c(C(C)NC(CC(=O)O)C(=O)O)c5C)C(C(C)NC(CC(=O)O)C(=O)O)=C4C)c(C)c3CCC(=O)O.N=C(N)NCCC[C@H](N)C(=O)O.N=C(N)NCCC[C@H](N)C(=O)O (stereo not drawn) [PP/Asp/2 /Arg/2, l-arginine di/N-aspartyl/-protoporphyrinate]	++++	0,92	65	+	0,55	55	+++	0,52	17	+	0,15	14%	+++	0,81	48	+++	0,50	38	++	0,12	Percentage of living cells /P %/ [6]: 16%; Cell fluorescence /F/ [7]: ++++; Cell multiplication coefficient /M/ [7]: 0,40; Percentage of living cells /P %/ [7]: 47%; Cell fluorescence /F/ [8]: +++; Cell multiplication coefficient /M/ [8]: 0,92; Percentage of living cells /P %/ [8]: 70%; Cell fluorescence /F/ [9]: ++; Cell multiplication coefficient /M/ [9]: 0,73; Percentage of living cells /P %/ [9]: 25%
